Residues, ends and D or L forms follow the SMILES beside them. No end group written: not given here. *: point of attachment. Cbz = O=C(OCc1ccccc1)*; CH2F = FC*
Legend:
[1] = test system: HEK-293T cells; test: Fluorescence microscopy of HEK-293T cells after transfection (Hoechst 33342 nuclear staining); format: cell-based; conditions: 1 μg plasmid per well, 4 h transfection then 12 h culture, Z-VAD-FMK 20 μM added 2 h before transfection
Experimental: (§1) The cultured HEK-293T cells (purchased from ATCC) were digested and counted with a hemocytometer, the resulting cells were diluted with a medium containing 10% fetal bovine serum (FBS) by volume, and added to a six-well plate, with 2×10^5 cells per well. The six-well plate was incubated in a 5% CO2 incubator at 37° C. until the cells grew to 50% to 70% confluence for transfection. […]
(§2) During the transfection, a mass-to-volume ratio (m:v) of the plasmid and the transfection reagent was 1:2, and 1 μg of the plasmid was added to each well of the six-well plate, and 2 μl of the transfection reagent was added correspondingly; the plasmid and transfection reagent were diluted with a serum-free medium in advance, shaken well, and allowed to stand at 25° C. for 5 min separately; the transfection reagent was pipetted to the serum-free medium containing the plasmid, flicked to mix well, and allowed to stand at 25° C. for 20 min to obtain a complex. […] Z-VAD-FMK (Selleck) was added to the six-well plate at a concentration of 20 μM 2 h before the transfection, nuclei were colored with a Hoechst 33342 dye, and condition of the cells after transfection was observed under a fluorescence microscope.

[2] = test system: HEK-293T cells; test: Annexin V-FITC flow cytometry-based apoptosis assay of transfected cells; format: cell-based
Experimental: as §1
as §2, with “microscope. […]” for “microscope.”

Compound	condition of the cells after transfection observed under a fluorescence microscope [1]	survival rate of cells (FIG. 4) ([2]; HEK-293T cells after transfection, in words)	effect on apoptosis ([2]; Bax-BH3 polypeptide expressed by the recombinant vector transfected into HEK-293T cells)
COC(=O)C[C@H](NC(=O)[C@H](C)NC(=O)[C@@H](NC(=O)OCc1ccccc1)C(C)C)C(=O)CF [Z-VAD-FMK] (Cbz-Val-Ala-Asp(OMe)-CH2F)	significantly inhibit apoptosis	significantly improved	
DASTKKLSECLRRIGDELDS			promoting apoptosis

— patent US11963997B2, “Anti-tumor polypeptide Bax-BH3, fluorescent polymeric nanomicelle, preparation method and use thereof” (Jilin University, priority 2021, dated 2024)
